Reference: ChEMBL document CHEMBL1201862, “PubChem BioAssay data set” (2004)
The source made the active and inactive calls.

Tests used:
BJ [1] = test: cells; format: functional, cell-based; conditions: Homo sapiens
[2] = DRD fibroblast viability loss – cell-based, non-viral oncogenic, luminescence, dose response (AID 1934); format: functional; conditions: Homo sapiens
BJ [3] = test: BJ-TERT-LT-ST fibroblast viability loss – cell-based, RAS-independent, luminescence, dose response (AID 1935); format: functional; conditions: Homo sapiens;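 note: BJ fibroblasts immortalized with TERT plus LT and ST oncogenes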
BJ [4] = test: BJ-TERT fibroblast viability loss – cell-based, RAS-independent, luminescence, dose response (AID 1933); format: functional; conditions: Homo sapiens
Fatty acid synthase [5] = molecular target: T1, Fatty acid synthase (Homo sapiens, UniProt P49327); test: inhibition of human FAS-TE enzyme activity – biochemical, endpoint fluorescence intensity, uHTS hits, dose response (AID 624327); format: functional;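 note: fluorescence from hydrolysis of an O-methyl fluorescein acyl ester substrate by the enzyme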
T1 sequence (P49327 whole entry): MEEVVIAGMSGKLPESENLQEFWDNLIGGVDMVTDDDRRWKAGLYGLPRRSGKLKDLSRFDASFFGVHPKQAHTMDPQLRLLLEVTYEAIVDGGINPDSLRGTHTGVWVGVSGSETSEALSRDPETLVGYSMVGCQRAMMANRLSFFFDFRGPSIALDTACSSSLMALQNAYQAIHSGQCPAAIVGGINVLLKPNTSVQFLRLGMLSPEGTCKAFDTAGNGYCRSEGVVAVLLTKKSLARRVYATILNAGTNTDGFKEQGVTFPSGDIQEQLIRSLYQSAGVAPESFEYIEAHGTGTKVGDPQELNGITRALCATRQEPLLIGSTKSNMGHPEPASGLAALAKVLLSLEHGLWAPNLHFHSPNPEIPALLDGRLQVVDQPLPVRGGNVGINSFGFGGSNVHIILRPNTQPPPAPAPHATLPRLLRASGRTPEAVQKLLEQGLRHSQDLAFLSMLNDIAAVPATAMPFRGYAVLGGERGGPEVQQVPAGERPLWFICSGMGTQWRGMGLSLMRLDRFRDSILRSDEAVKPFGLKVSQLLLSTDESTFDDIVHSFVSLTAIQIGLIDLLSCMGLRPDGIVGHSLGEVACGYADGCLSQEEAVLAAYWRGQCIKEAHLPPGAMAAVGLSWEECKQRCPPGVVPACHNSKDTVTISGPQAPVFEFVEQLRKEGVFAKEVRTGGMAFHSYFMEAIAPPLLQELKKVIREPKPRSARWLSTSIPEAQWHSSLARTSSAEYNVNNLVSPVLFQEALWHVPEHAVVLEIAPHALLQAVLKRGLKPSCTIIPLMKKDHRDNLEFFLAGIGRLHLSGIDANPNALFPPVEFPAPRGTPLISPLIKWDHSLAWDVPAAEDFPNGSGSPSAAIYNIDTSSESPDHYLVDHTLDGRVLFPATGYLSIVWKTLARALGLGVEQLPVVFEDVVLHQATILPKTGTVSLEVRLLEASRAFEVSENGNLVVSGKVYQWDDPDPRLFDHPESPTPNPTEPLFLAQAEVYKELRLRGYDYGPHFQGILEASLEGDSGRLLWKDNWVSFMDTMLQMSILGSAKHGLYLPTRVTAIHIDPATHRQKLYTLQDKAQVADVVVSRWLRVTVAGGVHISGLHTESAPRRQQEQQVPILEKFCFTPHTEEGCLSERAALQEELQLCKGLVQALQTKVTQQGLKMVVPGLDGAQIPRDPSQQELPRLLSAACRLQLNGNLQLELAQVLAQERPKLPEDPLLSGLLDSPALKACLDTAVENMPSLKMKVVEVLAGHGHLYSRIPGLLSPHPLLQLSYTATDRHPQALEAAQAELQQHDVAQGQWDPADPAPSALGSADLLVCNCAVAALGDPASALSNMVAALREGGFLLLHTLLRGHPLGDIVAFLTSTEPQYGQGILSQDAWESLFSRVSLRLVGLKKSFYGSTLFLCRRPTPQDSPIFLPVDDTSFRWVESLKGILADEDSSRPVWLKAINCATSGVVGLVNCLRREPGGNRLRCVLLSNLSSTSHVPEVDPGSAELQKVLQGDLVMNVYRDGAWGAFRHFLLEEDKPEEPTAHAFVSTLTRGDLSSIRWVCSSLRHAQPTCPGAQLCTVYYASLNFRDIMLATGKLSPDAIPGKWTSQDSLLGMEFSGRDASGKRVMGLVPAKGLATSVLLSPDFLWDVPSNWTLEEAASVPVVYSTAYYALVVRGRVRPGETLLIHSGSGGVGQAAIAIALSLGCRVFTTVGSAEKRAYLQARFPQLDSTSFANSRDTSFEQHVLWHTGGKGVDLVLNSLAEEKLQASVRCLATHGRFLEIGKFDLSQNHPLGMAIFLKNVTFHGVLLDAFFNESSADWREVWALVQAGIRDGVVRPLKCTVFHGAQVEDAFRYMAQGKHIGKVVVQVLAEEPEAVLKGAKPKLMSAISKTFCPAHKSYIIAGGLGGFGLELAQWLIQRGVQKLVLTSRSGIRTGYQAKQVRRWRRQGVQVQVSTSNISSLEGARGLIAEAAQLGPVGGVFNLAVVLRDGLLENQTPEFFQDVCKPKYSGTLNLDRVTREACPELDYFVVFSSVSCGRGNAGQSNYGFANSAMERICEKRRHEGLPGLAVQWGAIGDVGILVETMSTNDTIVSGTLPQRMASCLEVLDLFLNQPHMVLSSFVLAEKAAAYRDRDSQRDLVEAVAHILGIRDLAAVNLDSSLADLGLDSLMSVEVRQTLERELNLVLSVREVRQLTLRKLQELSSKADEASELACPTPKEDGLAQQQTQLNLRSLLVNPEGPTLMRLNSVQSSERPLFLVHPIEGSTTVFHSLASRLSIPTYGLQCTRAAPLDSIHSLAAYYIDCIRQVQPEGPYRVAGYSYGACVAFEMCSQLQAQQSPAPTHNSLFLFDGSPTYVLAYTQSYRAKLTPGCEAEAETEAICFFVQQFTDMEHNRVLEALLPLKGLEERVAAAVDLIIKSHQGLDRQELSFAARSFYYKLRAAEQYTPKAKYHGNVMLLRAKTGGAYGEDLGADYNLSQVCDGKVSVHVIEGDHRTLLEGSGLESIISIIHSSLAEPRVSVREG

[6] = NIH3T3 cell viability loss – ATP luminescence, mouse fibroblasts, counter-screen, dose response (AID 2010); format: functional, cell-based;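 note: cells exposed to compound for about 90 hours before reading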
[7] = Trypanosoma cruzi growth suppression in host cells – NIH3T3 host cells, beta-gal luminescence, confirmation (AID 2044); format: functional, cell-based;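 note: intracellular parasites grown in NIH/3T3 mouse fibroblasts as host cells; luminescent beta-galactosidase reporter signal from transgenic T. cruzi replicating inside host cells; inhibitors lower the luminescence signal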
Fatty acid synthase [8] = molecular target: T1, Fatty acid synthase; test: inhibition of human FAS-TE enzyme activity – biochemical, kinetic fluorescence intensity, dose response (AID 624326); format: functional;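 note: rate of fluorescence rise from hydrolysis of a fluorogenic O-methyl fluorescein ester substrate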
[9] = molecular target: T2, Replicative DNA helicase DnaB (Mycobacterium tuberculosis, UniProt P9WMR3); test: DnaB intein splicing inhibitors, dose response, biochemical, cell-free fluorescence (AID 449749); format: functional
T2 sequence (P9WMR3 whole entry): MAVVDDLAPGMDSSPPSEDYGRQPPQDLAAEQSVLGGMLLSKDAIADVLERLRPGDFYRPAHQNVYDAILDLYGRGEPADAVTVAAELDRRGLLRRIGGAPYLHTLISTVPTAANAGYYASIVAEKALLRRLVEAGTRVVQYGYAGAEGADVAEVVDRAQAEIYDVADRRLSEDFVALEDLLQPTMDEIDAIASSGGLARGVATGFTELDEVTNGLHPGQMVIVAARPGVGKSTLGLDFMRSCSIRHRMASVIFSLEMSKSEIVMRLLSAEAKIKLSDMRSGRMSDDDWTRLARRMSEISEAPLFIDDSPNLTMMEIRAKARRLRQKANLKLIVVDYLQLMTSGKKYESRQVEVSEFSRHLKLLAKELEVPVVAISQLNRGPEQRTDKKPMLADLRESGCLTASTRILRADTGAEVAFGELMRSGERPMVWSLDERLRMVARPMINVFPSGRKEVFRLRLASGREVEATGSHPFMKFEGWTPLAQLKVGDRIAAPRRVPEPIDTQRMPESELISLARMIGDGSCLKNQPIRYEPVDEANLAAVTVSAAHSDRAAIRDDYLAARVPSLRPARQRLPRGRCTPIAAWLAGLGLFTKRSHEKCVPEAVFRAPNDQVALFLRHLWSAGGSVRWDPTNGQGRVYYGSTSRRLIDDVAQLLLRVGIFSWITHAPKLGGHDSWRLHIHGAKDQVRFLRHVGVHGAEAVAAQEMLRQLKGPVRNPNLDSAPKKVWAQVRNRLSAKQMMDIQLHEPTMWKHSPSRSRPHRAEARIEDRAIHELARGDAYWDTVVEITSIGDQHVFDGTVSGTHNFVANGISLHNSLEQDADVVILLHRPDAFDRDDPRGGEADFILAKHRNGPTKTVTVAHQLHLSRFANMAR

Protein RecA = molecular target: T3, Protein RecA (Mycobacterium tuberculosis, UniProt P9WHJ3); test: Fluorescence Cell-Free Homogeneous Dose Retest to Identify Inhibitors of RecA-Intein Splicing Activity. [Related pubchem assays (depositor defined):AID2097, AID2223, AID489010, AID492950]; format: functional
T3 sequence (P9WHJ3 whole entry): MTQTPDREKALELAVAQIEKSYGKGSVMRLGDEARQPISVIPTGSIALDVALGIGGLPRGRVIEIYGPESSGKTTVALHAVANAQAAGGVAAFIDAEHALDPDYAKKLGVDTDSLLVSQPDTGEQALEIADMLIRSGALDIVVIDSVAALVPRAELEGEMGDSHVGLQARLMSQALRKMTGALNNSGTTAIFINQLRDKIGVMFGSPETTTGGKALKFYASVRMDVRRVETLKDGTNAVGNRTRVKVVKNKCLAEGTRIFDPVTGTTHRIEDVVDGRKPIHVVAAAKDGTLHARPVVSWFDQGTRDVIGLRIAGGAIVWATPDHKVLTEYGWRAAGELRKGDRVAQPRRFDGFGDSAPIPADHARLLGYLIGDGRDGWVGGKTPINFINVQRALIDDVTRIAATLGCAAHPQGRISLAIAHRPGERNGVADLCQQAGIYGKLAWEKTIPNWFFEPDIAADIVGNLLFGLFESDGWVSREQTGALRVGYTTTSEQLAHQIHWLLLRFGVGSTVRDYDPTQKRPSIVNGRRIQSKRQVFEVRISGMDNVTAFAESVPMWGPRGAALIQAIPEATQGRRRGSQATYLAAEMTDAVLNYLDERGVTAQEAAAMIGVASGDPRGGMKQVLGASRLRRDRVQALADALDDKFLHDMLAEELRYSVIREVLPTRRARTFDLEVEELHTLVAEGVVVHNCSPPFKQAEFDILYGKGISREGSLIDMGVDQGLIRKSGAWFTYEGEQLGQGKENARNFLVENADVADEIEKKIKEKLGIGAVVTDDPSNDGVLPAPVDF

Genome polyprotein = Genome polyprotein (dengue virus type 2, UniProt P29990); test: flavivirus cap methylation enzyme inhibition – biochemical, confirmation dose response, primary screen (AID 588689); format: functional
Sequence of Genome polyprotein (P29990 2492-3391 limits assumed): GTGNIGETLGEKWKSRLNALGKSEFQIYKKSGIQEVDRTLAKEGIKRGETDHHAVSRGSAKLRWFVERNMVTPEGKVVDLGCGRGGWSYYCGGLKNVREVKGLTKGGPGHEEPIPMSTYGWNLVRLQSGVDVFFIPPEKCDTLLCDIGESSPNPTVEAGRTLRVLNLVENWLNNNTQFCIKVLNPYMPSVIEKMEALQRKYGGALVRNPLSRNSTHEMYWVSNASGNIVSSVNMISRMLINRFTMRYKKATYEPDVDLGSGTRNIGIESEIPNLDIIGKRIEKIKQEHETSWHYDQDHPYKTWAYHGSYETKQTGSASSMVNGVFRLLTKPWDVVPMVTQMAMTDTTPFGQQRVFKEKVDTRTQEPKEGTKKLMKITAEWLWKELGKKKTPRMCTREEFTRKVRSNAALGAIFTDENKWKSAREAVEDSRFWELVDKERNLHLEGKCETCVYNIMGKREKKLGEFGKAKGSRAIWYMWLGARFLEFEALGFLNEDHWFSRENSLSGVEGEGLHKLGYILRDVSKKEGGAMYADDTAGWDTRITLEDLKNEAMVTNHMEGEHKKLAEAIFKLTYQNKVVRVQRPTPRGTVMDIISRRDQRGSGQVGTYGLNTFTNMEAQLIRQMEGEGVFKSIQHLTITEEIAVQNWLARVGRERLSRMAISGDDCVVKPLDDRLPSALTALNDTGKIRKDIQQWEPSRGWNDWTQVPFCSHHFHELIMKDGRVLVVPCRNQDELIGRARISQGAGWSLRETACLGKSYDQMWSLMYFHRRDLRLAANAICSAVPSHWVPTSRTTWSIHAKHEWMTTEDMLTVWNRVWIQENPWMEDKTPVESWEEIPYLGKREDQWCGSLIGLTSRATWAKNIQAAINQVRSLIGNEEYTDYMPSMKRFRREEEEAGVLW

[10] = HIV-1 AD8 envelope cell-cell fusion blockers – cherry-pick, dose response (AID 652062); format: functional, cell-based;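 note: luciferase signal from cell-cell fusion driven by HIV-1 clade B AD8 Env; potency is for inhibitors of fusion seen as a drop in luminescence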
[11] = blockers of HIV-1 envelope-mediated cell-cell fusion – cherry-pick, dose response (AID 652057); format: functional, cell-based
[12] = off-target signal loss in HeLa-CEM21 co-culture – HeLa F-luc CTL cells, cherry-picked, counter-screen for HIV-1 Env fusion inhibitor project, dose response (AID 652040); format: functional, cell-based;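 note: potency for signal decrease marking cytotoxic or nonspecific inhibition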
[13] = blockers of HIV-1 ZM109 envelope-driven cell-cell fusion – HeLa effector, CEM target cells, luciferase, cherry-pick, dose response (AID 652058); format: functional, cell-based;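 note: luciferase signal from HIV-1 Env mediated cell-cell fusion of effector and target cells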
cells [14] = format: functional, cell-based
cells [15] = format: functional, cell-based; remark: listed apart in the source
[16] = molecular target: Induced myeloid leukemia cell differentiation protein Mcl-1 (Homo sapiens, UniProt Q07820); format: functional
Sequence of Induced myeloid leukemia cell differentiation protein Mcl-1 (Q07820 whole entry): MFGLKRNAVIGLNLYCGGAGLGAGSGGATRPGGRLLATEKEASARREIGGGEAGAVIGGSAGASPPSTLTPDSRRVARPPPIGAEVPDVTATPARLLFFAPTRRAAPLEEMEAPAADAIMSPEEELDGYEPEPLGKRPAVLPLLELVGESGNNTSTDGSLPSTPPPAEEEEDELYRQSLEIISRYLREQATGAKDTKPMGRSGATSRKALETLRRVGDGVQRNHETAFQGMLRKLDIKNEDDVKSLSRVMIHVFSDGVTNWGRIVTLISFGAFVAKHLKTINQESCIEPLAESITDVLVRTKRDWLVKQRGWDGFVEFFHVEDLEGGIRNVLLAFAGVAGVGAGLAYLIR

[17] = molecular target: T4, Heat shock factor protein 1 (Mus musculus, UniProt P38532); test: decrease of HSF1-responsive luciferase luminescence – cell-based, NIH3T3, dose retest, confirmation (AID 2382); format: functional;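 note: NIH3T3 fibroblasts with HSF1-driven luciferase reporter stressed by proteasome inhibitor MG132; luminescence from HSF1-driven luciferase expression after 8 hours of MG132 stress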
T4 sequence (P38532 whole entry): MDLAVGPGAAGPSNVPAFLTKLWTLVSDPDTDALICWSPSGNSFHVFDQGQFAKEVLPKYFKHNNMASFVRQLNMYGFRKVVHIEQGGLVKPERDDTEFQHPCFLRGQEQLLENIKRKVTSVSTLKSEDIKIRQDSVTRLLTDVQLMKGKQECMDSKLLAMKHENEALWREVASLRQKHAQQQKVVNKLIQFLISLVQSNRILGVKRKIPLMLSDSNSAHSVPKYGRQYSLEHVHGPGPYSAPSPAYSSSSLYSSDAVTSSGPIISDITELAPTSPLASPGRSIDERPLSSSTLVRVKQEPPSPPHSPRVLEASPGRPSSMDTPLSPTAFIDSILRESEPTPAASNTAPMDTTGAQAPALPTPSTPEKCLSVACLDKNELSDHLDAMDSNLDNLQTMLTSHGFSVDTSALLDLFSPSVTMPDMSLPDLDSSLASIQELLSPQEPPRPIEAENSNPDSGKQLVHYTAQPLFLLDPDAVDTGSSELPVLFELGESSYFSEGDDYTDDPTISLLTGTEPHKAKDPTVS

[18] = molecular target: FAD-linked sulfhydryl oxidase ALR (Homo sapiens, UniProt P55789); test: ALR-catalysed DTT oxidation blockers – biochemical, H2O2 detection, luminescence, cherry-pick, dose response (AID 493248)
Sequence of FAD-linked sulfhydryl oxidase ALR (P55789 whole entry): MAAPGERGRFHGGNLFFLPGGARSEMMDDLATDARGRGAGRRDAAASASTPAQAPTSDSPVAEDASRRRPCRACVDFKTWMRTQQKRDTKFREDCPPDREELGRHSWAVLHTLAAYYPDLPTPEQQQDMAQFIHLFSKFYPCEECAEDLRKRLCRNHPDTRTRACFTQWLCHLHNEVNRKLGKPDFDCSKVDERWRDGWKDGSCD

Q: Which results are given for COC(=O)Cn1c(=O)c(C(=O)CCl)c(N)n(Cc2ccccc2)c1=O?
A: EC50 (BJ [1]): 7 µM (active); EC50 [2]: 4.86 µM (inconclusive); EC50 (BJ [3]): 16.3 µM (inconclusive); EC50 (BJ [4]): 0.797 µM (active)

Q: What does the source list for O=C(Cn1cnc2cc([N+](=O)[O-])ccc2c1=O)Nc1ccc2c(c1)OCO2?
A: IC50 (Fatty acid synthase [5]): 4.19 µM (active); EC50 [6]: > 60 µM (not active); EC50 [7]: 2.31 µM (active); IC50 (Fatty acid synthase [8]): 3.65 µM (active)

Q: With CCc1ccccc1N1C(=O)C(Cl)=C(N2CCOCC2)C1=O as the molecule, how does the AC50 [9] read?
A: 6.57 µM (active)

Q: What about the EC50 (Protein RecA) of the same molecule?
A: 4.01 µM (active)

Q: And the IC50 (Genome polyprotein)?
A: 83.2 µM (active)

Q: For CC(NC(=O)CN(C)CC(=O)Nc1ccc(Cl)c(C(F)(F)F)c1)c1ccccc1 (stereo unspecified), which AC50 [10] is on record?
A: 14.9 µM (active)

Q: What about the AC50 [11] of the same molecule?
A: 4.06 µM (active)

Q: And the AC50 [12]?
A: 15.7 µM (active)

Q: And the AC50 [13]?
A: 8.39 µM (active)

Q: Which EC50 (cells [14]) does the source give for COC(=O)Nc1ccc(S(=O)(=O)N(C)C)cc1 here?
A: > 350 µM (not active)

Q: And the EC50 (cells [15])?
A: > 350 µM (not active)

Q: Which IC50 (Fatty acid synthase [5]) does the source give for CC(C)OC(=O)/C(C#N)=C/c1cn(C)c2ccccc12 here?
A: 13.8 µM (active)

Q: What about the IC50 (Fatty acid synthase [8]) of the same molecule?
A: 11.1 µM (active)

Q: Which EC50 (cells [14]) does the source give for COc1cccc(-n2c(SCC(=O)N3CCOCC3)nc3c4ccccc4nc-3c2O)c1 here?
A: > 350 µM (not active)

Q: And the EC50 (cells [15])?
A: > 350 µM (not active)

Q: What does the source list for Cc1cccc(NC(=O)C2CCN(S(=O)(=O)c3ccc4c(c3)OCCCO4)CC2)n1?
A: AC50 [10]: 13.1 µM (active); AC50 [11]: 66.2 µM (active); AC50 [12]: 42.2 µM (active)

Q: With C=CCOC(=O)/C(=C\c1ccccc1)NC(=O)c1ccc(C)cc1 as the molecule, how does the IC50 [16] read?
A: 2.49 µM (not active)

Q: What does the source list for CC(C)C(=O)Nc1sc2c(c1C(N)=O)CCN(Cc1ccccc1)C2?
A: EC50 (BJ [1]): > 150 µM (not active); EC50 [2]: 47.8 µM (active); EC50 (BJ [3]): > 150 µM (not active); EC50 (BJ [4]): > 150 µM (not active)

Q: With COc1ccc(C(=O)Nn2c(SCc3cccc([N+](=O)[O-])c3)nc3ccccc3c2=O)cc1 as the molecule, how does the IC50 (Fatty acid synthase [5]) read?
A: 17.5 µM (active)

Q: What about the IC50 (Fatty acid synthase [8]) of the same molecule?
A: 14.3 µM (active)

Q: What does the source list for CCN(CC)c1nc(Nc2ccccc2)nc(Oc2ccc(O)nn2)n1?
A: AC50 [10]: 9.57 µM (active); AC50 [11]: 6.13 µM (active); AC50 [12]: 5.99 µM (active); AC50 [13]: 9.89 µM (active)

Q: Which EC50 (cells [14]) does the source give for COc1ccc2cc(C(C)C(=O)N3CCC(C(N)=O)CC3)ccc2c1 (stereo unspecified) here?
A: > 350 µM (not active)

Q: And the EC50 (cells [15])?
A: > 350 µM (not active)

Q: What does the source list for CC(=O)Nc1ccc2c(c1)CCCC2=O?
A: EC50 (cells [14]): > 350 µM (not active); EC50 (cells [15]): > 350 µM (not active)

Q: For COc1ccc(/C=C(\C#N)c2nc3ccccc3[nH]2)cc1O, which EC50 (cells [14]) is on record?
A: > 350 µM (not active)

Q: What about the EC50 (cells [15]) of the same molecule?
A: 8.05 µM (active)

Q: With O=C(Nc1ncc2c(n1)-c1ccccc1OC2)c1cccc([N+](=O)[O-])c1 as the molecule, how does the IC50 (Fatty acid synthase [5]) read?
A: 9.93 µM (active)

Q: What about the IC50 (Fatty acid synthase [8]) of the same molecule?
A: 13 µM (active)

Q: What does the source list for CC(CCc1ccccc1)NC(=O)c1cccc([N+](=O)[O-])c1 (stereo unspecified)?
A: IC50 (Fatty acid synthase [5]): 6.29 µM (active); EC50 [17]: > 195 µM (not active); IC50 (Fatty acid synthase [8]): 7.07 µM (active)

Q: With O=C(CCN1C(=O)/C(=C/c2ccccc2Cl)SC1=S)Nc1ccccn1 as the molecule, how does the IC50 (Fatty acid synthase [5]) read?
A: 6.7 µM (active)

Q: What about the IC50 (Fatty acid synthase [8]) of the same molecule?
A: 1.96 µM (active)

Q: Which IC50 (Fatty acid synthase [5]) does the source give for O=C(C[C@H]1C[C@H](C(=O)N2CCOCC2)[C@@]2(CCC3CCCC3)c3[nH]c4ccc(Cl)cc4c3CCN2C1=O)NCCc1ccccn1 here?
A: 1.03 µM (active)

Q: What about the IC50 (Fatty acid synthase [8]) of the same molecule?
A: 1.15 µM (active)

Q: With Cc1ccc(C(=O)Nc2ccccc2C(=O)O)cc1S(=O)(=O)Nc1ccc(Br)cc1 as the molecule, how does the IC50 (Genome polyprotein) read?
A: 49.8 µM (active)

Q: And the AC50 [18]?
A: 628 nM (active)

Q: Which results are given for C=C1CCN([C@@H](CC(C)C)C(=O)Nc2ccc(OC)cc2)S(=O)(=O)c2ccccc21?
A: AC50 [10]: 3.63 µM (active); AC50 [11]: 2.12 µM (active); AC50 [12]: 4.03 µM (active); AC50 [13]: 2.47 µM (active)
